From patent US4185152A, “Thiazolidinyl alkoxy pyridines” (Warner-Lambert Company, priority 1971, dated 1980)
Where two headings read alike, the source gives them in different places.

What was measured:
[1] = approximate LD50 (acute toxicity, antiradiation activity table); conditions: mouse, in vivo, ip, mice, intraperitoneal
[2] = test system: mice exposed to X-ray or gamma ray radiation; assay: antiradiation test, 30-day survival of irradiated mice; format: in vivo; conditions: Mus musculus, light or radiation study, ip, i.p., 950 R cobalt-60 gamma or 825 R X-ray, read-out: Survival (30 days)
Text: The compounds of the invention are new chemical compounds that are useful as pharmacological agents, especially as antiradiation agents that are active in protecting against the effects of exposure to X-ray or gamma ray radiation.
In this table, the activity of each compound is expressed in terms of the percentage of animals that survived (30 days) the exposure to radiation at the given dose. The dose given is generally the lowest dose at which a high rate of survival was obtained. Administration was by the intraperitoneal route. Except where indicated otherwise, each compound was administered as the monohydrochloride salt to a test group consisting of 15 mice. The radiation dose was either 950 Roentgens supplied by a cobalt-60 gamma ray source or 825 Roentgens from an X-ray source.

[3] = 0.25 h, pre-irradiation time 15 min., 15 mice, monohydrochloride
[4] = 0.5 h, pre-irradiation time 30 min., 15 mice, monohydrochloride

In the case of `Brc1ccc(OCCCN2CCSC2)nc1.Cl` [Br 3, 5-bromo-2-[3-(3-thiazolidinyl)propoxy]pyridine, monohydrochloride], the LD50 ([1]; monohydrochloride salt) was ~250 mg/kg and the responders at 100 mg/kg [2, 3] was 33%.

Molecule `Brc1ccc(OCCCCCN2CCSC2)nc1.Cl` [Br 5, 5-Bromo-2-{[5-(3-thiazolidinyl)pentyl]oxy}-pyridine, monohydrochloride] has an LD50 ([1]; monohydrochloride salt) of ~240 mg/kg, a responders at 90 mg/kg ([2]; 0.5 h, dose 90 mg./kg., pre-irradiation time 30 min., six mice, monohydrochloride) of 83% and a responders at 180 mg/kg ([2]; 0.5 h, dose 180 mg./kg., pre-irradiation time 30 min., six mice, monohydrochloride) of 100%.

`Brc1ccc(OCCCCCCCCN2CCSC2)nc1.Cl` [Br 8, 5-Bromo-2-{[8-(3-thiazolidinyl)octyl]oxy}-pyridine, monohydrochloride] gave an LD50 ([1]; monohydrochloride salt) of ~230 mg/kg and a responders at 50 mg/kg ([2]; 0.5 h, dose 50 mg./kg., pre-irradiation time 30 min., 15 mice, monohydrochloride) of 20%.

`Cc1ccc(OCCCCCN2CCSC2)nc1` [CH3 5, 5-methyl-2-{[5-(3-thiazolidinyl)pentyl]-oxy}pyridine] gave an LD50 ([1]; dihydrochloride salt) of ~190 mg/kg and a responders at 70 mg/kg ([2]; 0.5 h, dose 70 mg./kg., pre-irradiation time 30 min., 15 mice, dihydrochloride) of 33%.

Work on `Cl.Cl.Clc1ccc(OCCCCCN2CCSC2)nc1` [Cl 5, 5-Chloro-2-{[5-(3-thiazolidinyl)pentyl]-oxy}pyridine, dihydrochloride] yielded an LD50 ([1]; dihydrochloride salt) of ~160 mg/kg, a responders at 80 mg/kg ([2]; 0.25 h, pre-irradiation time 15 min., 15 mice, dihydrochloride) of 87% and a responders at 80 mg/kg ([2]; 0.5 h, pre-irradiation time 30 min., 15 mice, dihydrochloride) of 93%.

With `Cl.Ic1ccc(OCCCCN2CCSC2)nc1` [I 4, 5-iodo-2-[4-(3-thiazolidinyl)-butoxy]pyridine, monohydrochloride] the LD50 ([1]; monohydrochloride salt) was > 300 mg/kg and the responders at 100 mg/kg [2, 3] was 20%.

`Cl.Ic1ccc(OCCCCCN2CCSC2)nc1` [I 5, 5-Iodo-2-{[5-(3-thiazolidinyl)pentyl]oxy}-pyridine, monohydrochloride] showed an LD50 ([1]; monohydrochloride salt) of ~230 mg/kg and a responders at 100 mg/kg [2, 4] of 93%.

`Cl.Ic1ccc(OCCCCCCCN2CCSC2)nc1` [I 7, 5-Iodo-2-{[7-(3-thiazolidinyl)heptyl]oxy}-pyridine, monohydrochloride] showed an LD50 ([1]; monohydrochloride salt) of ~200 mg/kg and a responders at 100 mg/kg [2, 4] of 47%.
